# Measurements from US10087199B2, “Super-resolution imaging compositions and methods using same” (Yale University, priority 2014, dated 2018).
# Columns and labels:
# [1] = tested on: HeLa cells that stably expressed GalNAcT2-GFP (Golgi); experiment: Two-step Golgi labeling and colocalization with GalNAcT2-GFP by confocal microscopy; assay type: cell-based; conditions: 2 μM Cer-TCO then 2 μM SiR-Tz, or SiR-Tz only; Golgi area; confocal
# Protocol: To evaluate whether the Golgi could be selectively imaged using Cer-SiR, HeLa cells that stably expressed a protein fusion composed of GFP and N-acetyl-galactosaminyltransferase 2 (GalNAcT2), a transmembrane protein that localizes to the Golgi with high specificity (Storrie, et al., 1998, J. Cell Biol. 143:1505-1521), were used. These cells were treated with 2 μM Cer-TCO (5 min), maintained at 19.5° C. for 60 min to localize the lipid to the Golgi, treated subsequently with 2 μM SiR-Tz (30 min), and visualized using confocal microscopy (FIG. 2A).
# The GalNAcT2-GFP and Cer-SiR signals colocalized with a Pearson's coefficient of 0.50±0.02; the corresponding value for the signals from GalNAcT2-GFP and SiR-Tz was 0.08±0.01 (p<0.0001) (FIG. 10), supporting that Cer-TCO effectively localized to the Golgi and reacted efficiently with SiR-Tz.
# Stably or transiently transfected HeLa cells were cultured on 35 mm glass bottom dishes (Mattek). To label with Cer-TCO/SiR-Tz, the cells were incubated in PBS containing 1% casein, 0.2% Pluronic F-127 and 2 or 5 μM TCO-Cer for 5 min at 37° C. After washing three times with DMEM ph(−), the cells were incubated for 1 h at 19.5° C. in DMEM ph(−). During this incubation the dish was sealed with parafilm to protect the cells from the used water bath. Subsequently, the cells were washed three times and PBS containing 1% casein and 2 or 1 μM SiR-Tz, respectively, was added to the dish. The dish was sealed with parafilm again and incubated for 30 min at 19.5° C. After washing three times with DMEM ph(−), the cells were observed under a confocal microscope. Fixed samples were prepared similarly with an additional treatment with 4% PFA for 10 min at room temperature after first temperature block. […]
# The Pearson correlation between the SiR and the GFP signal within cells was determined using the correlation measurement tool in Volocity. […] For cells stably expressing GalNAcT2-GFP and treated with SiR-Tz and Cer-TCO 13 samples (cells) were analyzed and for cells only treated with SiR-Tz 8 samples were analyzed. […]
# [2] = tested on: HeLa cells; experiment: Cell viability / cell- and photo-toxicity under prolonged imaging; assay type: cell-based; conditions: at concentrations as high as 2 μM
# Protocol: In the experiments described above, the cells were exposed to Cer-TCO/SiR-Tz for minutes, a relatively short time period. To evaluate whether this Golgi labeling strategy would result in cell- or photo-toxicity over prolonged periods (such as hours), HeLa cells were treated with varying concentrations of either Cer-TCO/SiR-Tz or BODIPY® FL C5-ceramide (BODIPY-Cer) (Marks, et al., 2008, Cell Biol. 130:819-832; Pagano, et al., 1991, J. Cell Biol. 113:1267-1279), a commercially available fluorescent dye that labels the Golgi. […]
# Hela cells stably expressing GalNAcT2-GFP were cultured on 35 mm glass bottom dishes subsequently labeled with various concentrations of TCO-Cer (0, 1, 2, and 5 μM) and SiR-Tz (0, 1, and 2 μM) following the protocol described elsewhere herein. […] After equilibration for 30 min, phase contrast images were taken at an interval of 20 min and fluorescence images at an interval of 10 min over 400-750 min. […] The number of physically intact cells was counted at each time point. For each condition at least 110 cells were counted/observed in the initial images (n0 (0 μM TCO-Cer, 0 μM SiR-Tz)=123 cells, n0 (2 μM TCO-Cer, 2 μM SiR-Tz)=113 cells, n0 (1 μM TCO-Cer, 1 μM SiR-Tz)=130 cells, n0 (5 μM TCO-Cer, 1 μM SiR-Tz)=120 cells, n0 (5 μM BODIPY-Cer)=123 cells).
structure (smiles),measurement,setting,value
"CCCCCCCCCCCCC/C=C/[C@@H](O)[C@H](CO)NC(=O)CCCCCNC(=O)OC1CCCC2=C(c3ccc(CNC(=O)c4ccc(C(=O)[O-])c(C5=C6C=CC(=[N+](C)C)C=C6[Si](C)(C)c6cc(N(C)C)ccc65)c4)cc3)NN=CC2CC1 (stereo partly drawn) [Cer-SiR, 4-((4-(7-(((6-(((2S,3R,E)-1,3-dihydroxyoctadec-4-en-2-yl)amino)-6-oxohexyl)carbamoyl)oxy)-2,4a,5,6,7,8,9,10-octahydrocycloocta[d]pyridazin-1-yl)benzyl)carbamoyl)-2-(7-(dimethylamino)-3-(dimethyliminio)-5,5-dimethyl-3,5-dihydrodibenzo[b,e]silin-10-yl)benzoate]",Pearson's coefficient of colocalization with GalNAcT2-GFP signal,[1],0.50±0.02
same,Toxicity,[2],non-toxic
